According to patent EP4000614A1, “EFLOXATE FOR USE AS ANTIVIRAL AGENT” (Consejo Superior de Investigaciones Científicas (CSIC), priority 2020, dated 2022):

What was measured:
229E-GFP virus = assay: microbe, parasite or virus in culture; assay type: cell-based, human 229E coronavirus; details: 72 h
[1] = Cytotoxicity measurement by MTT assay; assay type: cell-based; details: African green monkey, Vero-E6 cells
Procedure: (§1) Cytotoxicity measurement by MTT assays (MTT assay: cell viability assay that infers reductive capacity of the cells via formation of formazan precipitates. Overall estimation of cell metabolic rate): Vero-E6 cell monolayers were treated with a wide range of compound concentrations (from 50 to 0.78 µM) and forty-eight hours later they were subjected to MTT assays following the manufacturer's instructions. Compound concentration leading to a 50% of cytotoxicity (CC50) were determined (Table 2).

Vero-E6 cells = assay: Cytotoxicity measurement by MTT assay; assay type: cell-based; details: 48 hours
Procedure: as §1

SARS-CoV-2 E RNA = assay: Intracellular viral RNA quantitation by RT-qPCR in Vero-E6 cells; assay type: cell-based; details: for VIRAL LOAD MOI 0.001 (% OF CONTROL): MOI 0.001, 48 hours, Vero-E6; for LOG DROP: relative reduction in viral RNA accumulation in log scale
[2] = system: SARS-CoV-2 S protein-pseudotyped retroviral vectors; assay type: cell-based
[3] = system: pseudotypes based on vesicular stomatitis virus (VSV-G) glycoprotein; assay type: cell-based
RD114-pseudotypes = assay type: cell-based
in vitro = details: human
[4] = system: SARS-CoV-2 strain NL/2020; assay: SARS-CoV-2 cell monolayer protection assay (crystal violet) in Vero-E6 cells

For `CCOC(=O)COc1ccc2c(=O)cc(-c3ccccc3)oc2c1` [Efloxate, efloxate], the EC50 (229E-GFP virus; human coronavirus 229E) was 1600 nM, the EC90 (229E-GFP virus; unidentified human coronavirus) was 5 µM and the CC50 at 48 h [1] was over 50 µM. For the same compound, the “HIGHEST NON-TOXIC CONCENTRATION (MTT)” value (Vero-E6 cells) was 12.5, the “VIRAL LOAD MOI 0.001 (% OF CONTROL)” value (SARS-CoV-2 E RNA; dose 12.5 µM) was 27.42 % OF CONTROL and the “VIRAL LOAD MOI 0.001 (% OF CONTROL)” value (SARS-CoV-2 E RNA; dose 25 µM) was 24.34 % OF CONTROL. The “VIRAL LOAD MOI 0.001 (% OF CONTROL)” value (SARS-CoV-2 E RNA; dose 35 µM) was 0.00 % OF CONTROL, the “VIRAL LOAD MOI 0.001 (% OF CONTROL)” value (SARS-CoV-2 E RNA; dose 50 µM) was 0.06 % OF CONTROL and the “LOG DROP” value (SARS-CoV-2 E RNA; dose 12.5 µM) was 0.55. For the same compound, the “LOG DROP” value (SARS-CoV-2 E RNA; dose 25 µM) was 0.6, the “LOG DROP” value (SARS-CoV-2 E RNA; dose 35 µM) was 5.5 and the “LOG DROP” value (SARS-CoV-2 E RNA; dose 50 µM) was 3.2. The “Spp (% of control)” value [2] was 16.68 % of control, the pseudotype entry selectivity [2] was “interfere selectively with Spp entry” and the “VSVpp (% of control)” value [3] was 106.24 % of control. For the same compound, the “RD114pp (% of control)” value (RD114-pseudotypes) was 153.15 % of control, the CC50 at 72 h (in vitro) was 35 µM and the “PC MAX” value ([4]; Maximum concentration that protects cells (100%) from the cytopathic effect, Vero-E6, MOI 0.001, 72 hours) was 50 µM. The “PC MIN” value ([4]; Minimum concentration that protects cells (100%) from the cytopathic effect, Vero-E6, MOI 0.001, 72 hours) was 25 µM and the “antiviral activity at non-cytotoxic concentrations” value ([4]; human coronavirus, including SARS-CoV-2) was 12.5 to 50 µM.
